From US20250340567A1, “Next Generation Synthetic Transcription Factors” (WISCONSIN ALUMNI RESEARCH FOUNDATION, priority 2018, published 2025)

Experiments:
[1] = molecular target: BRD4(2) second bromodomain (Homo sapiens, UniProt O60885); details: cited from earlier work
[2] = molecular target: BRD4(1) first bromodomain (Homo sapiens, UniProt O60885); details: cited from earlier work
[3] = test system: BET BD1; details: cited from earlier work
[4] = test system: BET BD2; details: cited from earlier work
[5] = Stability of synthetic transcription factors on storage, followed by mass spectra; type: physicochemical; details: at 18° C., mass spectra (FIG. 2)
Experimental: In as little as 5 days at 18° C., SynTEF1 begins to break down (FIG. 2).
Other synthetic transcription factors having an ether bond as described herein between the bromodomain binding moiety and the linker also have shown improved stability.

[6] = molecular target: BRD3 (Homo sapiens, UniProt Q15059); details: cited from earlier work
Sequence of BRD3 (Q15059 whole entry, species assumed): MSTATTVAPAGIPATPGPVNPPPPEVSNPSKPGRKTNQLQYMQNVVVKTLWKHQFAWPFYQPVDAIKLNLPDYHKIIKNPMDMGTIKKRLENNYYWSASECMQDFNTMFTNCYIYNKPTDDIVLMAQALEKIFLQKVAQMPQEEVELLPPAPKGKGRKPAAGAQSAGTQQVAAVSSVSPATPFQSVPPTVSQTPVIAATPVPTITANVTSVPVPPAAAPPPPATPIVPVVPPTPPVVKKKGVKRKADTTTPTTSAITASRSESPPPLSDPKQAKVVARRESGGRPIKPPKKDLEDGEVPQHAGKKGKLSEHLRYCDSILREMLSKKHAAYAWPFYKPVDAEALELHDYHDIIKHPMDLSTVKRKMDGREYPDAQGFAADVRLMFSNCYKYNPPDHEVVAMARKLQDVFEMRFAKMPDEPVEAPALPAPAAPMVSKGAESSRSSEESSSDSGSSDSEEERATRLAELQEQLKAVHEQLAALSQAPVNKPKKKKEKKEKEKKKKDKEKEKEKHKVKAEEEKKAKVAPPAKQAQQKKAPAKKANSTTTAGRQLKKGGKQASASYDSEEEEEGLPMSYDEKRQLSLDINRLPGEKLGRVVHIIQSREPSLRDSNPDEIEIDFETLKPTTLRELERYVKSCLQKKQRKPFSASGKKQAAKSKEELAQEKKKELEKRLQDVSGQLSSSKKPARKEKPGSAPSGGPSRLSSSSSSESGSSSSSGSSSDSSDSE

[7] = molecular target: BRD2 (Homo sapiens, UniProt P25440); details: cited from earlier work
Sequence of BRD2 (P25440 whole entry, species assumed): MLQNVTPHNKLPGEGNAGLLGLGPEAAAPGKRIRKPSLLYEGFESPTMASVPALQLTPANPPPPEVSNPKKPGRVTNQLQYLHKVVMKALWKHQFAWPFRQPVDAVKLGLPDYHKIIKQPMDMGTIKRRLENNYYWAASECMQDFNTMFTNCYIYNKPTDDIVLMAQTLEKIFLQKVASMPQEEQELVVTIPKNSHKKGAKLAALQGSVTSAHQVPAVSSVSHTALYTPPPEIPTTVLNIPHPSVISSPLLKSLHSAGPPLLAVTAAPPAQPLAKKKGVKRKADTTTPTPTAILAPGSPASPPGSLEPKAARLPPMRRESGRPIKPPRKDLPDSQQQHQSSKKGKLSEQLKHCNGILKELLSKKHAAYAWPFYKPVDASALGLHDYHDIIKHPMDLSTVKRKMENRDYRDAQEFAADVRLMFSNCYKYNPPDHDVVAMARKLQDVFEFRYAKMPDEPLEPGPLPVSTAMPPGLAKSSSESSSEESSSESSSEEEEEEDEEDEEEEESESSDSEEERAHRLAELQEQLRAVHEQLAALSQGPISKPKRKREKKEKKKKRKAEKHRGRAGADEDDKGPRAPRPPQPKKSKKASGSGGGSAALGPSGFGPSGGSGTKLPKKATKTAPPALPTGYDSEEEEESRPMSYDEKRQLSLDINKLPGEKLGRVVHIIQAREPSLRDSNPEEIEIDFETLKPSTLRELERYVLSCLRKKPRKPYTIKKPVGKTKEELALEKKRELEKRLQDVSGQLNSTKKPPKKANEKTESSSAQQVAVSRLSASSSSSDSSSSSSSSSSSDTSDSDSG

[8] = test system: BET bromodomain; details: read-out: IC50 BET bromodomain; cited from earlier work

In the case of `Cc1sc2c(c1C)C(c1ccc(Cl)cc1)=N[C@@H](CC(=O)NC(C)(C)C)c1nnc(C)n1-2` [(+)-JQ1], the IC50 [1] is listed as 33 nM and the IC50 [2] is listed as 77 nM.
For `COc1cc(OC)c2c(=O)[nH]c(-c3cc(C)c(OCCO)c(C)c3)nc2c1` [RVX208], the IC50 [3] is given as 87 µM and the IC50 [4] is given as 510 nM.
With `Cc1sc2c(c1C)C(c1ccc(Cl)cc1)=N[C@@H](CC(=O)NCCOCCOCCOCCOCCOCCOCCC(=O)NCCCN(C)CCCNC(=O)CCNC(=O)c1nc(NC(=O)CCNC(=O)c3cc(NC(=O)c4nc(NC(=O)CCNC(=O)c5cc(NC(=O)c6nccn6C)cn5C)cn4C)cn3C)cn1C)c1nnc(C)n1-2` [SynTEF1] the “time at which the compound begins to break down” value [5] was no more than 5 days.
For `CC(=O)N1c2ccc(-c3ccc(C(=O)O)cc3)cc2[C@H](Nc2ccc(Cl)cc2)C[C@@H]1C` [I-BET726], the IC50 [6] is listed as 31 nM and the IC50 [7] is listed as 41 nM.
For `CCNC(=O)C[C@@H]1N=C(c2ccc(Cl)cc2)c2cc(OC)ccc2-n2c(C)nnc21` [I-BET762], the IC50 [8] is given as 32.5 to 42.5 nM.
